Measured values as given in US12538924B2, “Pesticidally active heterocyclic derivatives with sulfur containing substituents” (SYNGENTA CROP PROTECTION AG, priority 2019, dated 2026).

Legend:
Type in all cases: in vivo
[1] = tested on: Diabrotica Balteata (Corn Root Worm); experiment: Diabrotica balteata (Corn Root Worm), sprayed maize sprouts; settings: 96 h, application rate of 200 ppm, L2 larvae on sprayed maize sprouts, 4 days after infestation, read-out: effect in at least one of the two categories (mortality or growth inhibition)
Procedure: Example B2: Diabrotica Balteata (Corn Root Worm)
Maize sprouts placed onto an agar layer in 24-well microtiter plates were treated with aqueous test solutions prepared from 10'000 ppm DMSO stock solutions by spraying. After drying, the plates were infested with L2 larvae (6 to 10 per well). The samples were assessed for mortality and growth inhibition in comparison to untreated samples 4 days after infestation.

[2] = tested on: Euschistus heros (Neotropical Brown Stink Bug); experiment: Euschistus heros (Neotropical Brown Stink Bug), sprayed soybean leaves; settings: 120 h, application rate of 200 ppm, N2 nymphs on sprayed soybean leaves, 5 days after infestation, read-out: effect in at least one of the two categories (mortality or growth inhibition)
Procedure: Example B3: Euschistus heros (Neotropical Brown Stink Bug)
Soybean leaves on agar in 24-well microtiter plates were sprayed with aqueous test solutions prepared from 10'000 ppm DMSO stock solutions. After drying the leaves were infested with N2 nymphs. The samples were assessed for mortality and growth inhibition in comparison to untreated samples 5 days after infestation.

[3] = tested on: Frankliniella occidentalis (Western Flower Thrips); experiment: Frankliniella occidentalis (Western Flower Thrips): Feeding/Contact Activity; settings: foliar, 168 h, application rate of 200 ppm, population of mixed ages on sprayed sunflower leaf discs, 7 days after infestation
Procedure: Example B4: Frankliniella occidentalis (Western Flower Thrips): Feeding/Contact Activity
Sunflower leaf discs were placed on agar in 24-well microtiter plates and sprayed with aqueous test solutions prepared from 10'000 DMSO stock solutions. After drying the leaf discs were infested with a Frankliniella population of mixed ages. The samples were assessed for mortality 7 days after infestation.

[4] = tested on: Plutella xylostella (Diamond Back Moth); experiment: Plutella xylostella (Diamond Back Moth), treated artificial diet; settings: 192 h, application rate of 200 ppm, eggs on treated artificial diet, 8 days after infestation, read-out: effect in at least one of the two categories (mortality or growth inhibition)
Procedure: Example B5: Plutella xylostella (Diamond Back Moth)
24-well microtiter plates with artificial diet were treated with aqueous test solutions prepared from 10'000 ppm DMSO stock solutions by pipetting. After drying, Plutella eggs were pipetted through a plastic stencil onto a gel blotting paper and the plate was closed with it. The samples were assessed for mortality and growth inhibition in comparison to untreated samples 8 days after infestation.

[5] = tested on: Myzus persicae (Green Peach Aphid); experiment: Myzus persicae (Green Peach Aphid): Feeding/Contact Activity; settings: foliar, 144 h, application rate of 200 ppm, aphid population of mixed ages on sprayed sunflower leaf discs, 6 days after infestation
Procedure: Example B6: Myzus persicae (Green Peach Aphid): Feeding/Contact Activity
Sunflower leaf discs were placed onto agar in a 24-well microtiter plate and sprayed with aqueous test solutions prepared from 10'000 ppm DMSO stock solutions. After drying, the leaf discs were infested with an aphid population of mixed ages. The samples were assessed for mortality 6 days after infestation.

[6] = tested on: Myzus persicae (Green Peach Aphid); experiment: Myzus persicae (Green Peach Aphid): Systemic Activity; settings: 144 h, test rate of 24 ppm, roots of infested pea seedlings placed into test solutions, 6 days
Procedure: Example B7: Myzus persicae (Green Peach Aphid): Systemic Activity
Roots of pea seedlings infested with an aphid population of mixed ages were placed directly into aqueous test solutions prepared from 10'000 DMSO stock solutions. The samples were assessed for mortality 6 days after placing seedlings into test solutions.

[7] = tested on: Spodoptera littoralis (Egyptian Cotton Leaf Worm); experiment: Spodoptera littoralis (Egyptian Cotton Leaf Worm), sprayed cotton leaf discs; settings: foliar, 72 h, application rate of 200 ppm, L1 larvae on sprayed cotton leaf discs, 3 days after infestation, read-out: control (mortality, anti-feeding effect or growth inhibition)
Procedure: Example B8: Spodoptera littoralis (Egyptian Cotton Leaf Worm)
Cotton leaf discs were placed onto agar in 24-well microtiter plates and sprayed with aqueous test solutions prepared from 10'000 ppm DMSO stock solutions. After drying the leaf discs were infested with five L1 larvae. The samples were assessed for mortality, anti-feeding effect, and growth inhibition in comparison to untreated samples 3 days after infestation. Control of Spodoptera littoralis by a test sample is given when at least one of the categories mortality, anti-feedant effect, and growth inhibition is higher than the untreated sample.

[8] = tested on: Nilaparvata lugens (Brown Plant Hopper); experiment: Nilaparvata lugens (Brown Plant Hopper): Larvicide, Feeding/Contact; settings: 168 h, application rate of 50 ppm, N3 nymphs on sprayed rice plants, 7 days after the treatment
Procedure: Example B10: Nilaparvata lugens (Brown Plant Hopper): Larvicide, Feeding/Contact
Rice plants were treated with the diluted test solutions in a spray chamber. After drying plants were infested with ˜20 N3 nymphs. 7 days after the treatment samples were assessed for mortality and growth regulation.

[9] = tested on: Nilaparvata lugens (Brown Plant Hopper); experiment: Nilaparvata lugens (Brown Plant Hopper): Igr, Feeding/Contact; settings: 360 h, application rate of 50 ppm, sprayed rice plants, N3 nymphs, assessed for effect on F1 generation 15 days after the treatment
Procedure: Example B11: Nilaparvata lugens (Brown Plant Hopper): Igr, Feeding/Contact
Rice plants were treated with the diluted test solutions in a spray chamber. After drying plants were infested with ˜20 N3 nymphs. 7 days after treatment adults were removed and 15 days after the treatment samples were assessed for effect on F1 generation.

[10] = tested on: Nilaparvata lugens (Brown Plant Hopper); experiment: Nilaparvata lugens (Brown Plant Hopper): Larvicide, Systemic into Water; settings: 168 h, test rate of 12.5 ppm, rice plants in nutritive solution, N3 nymphs, 7 days after infestation
Procedure: Example B12: Nilaparvata lugens (Brown Plant Hopper): Larvicide, Systemic into Water
Rice plants cultivated in a nutritive solution were treated with the diluted test solutions into nourishing cultivation system. 1 day after application plants were infested with ˜20 N3 nymphs. 7 days after infestation samples were assessed for mortality and growth regulation.

[11] = tested on: Bemisia tabaci (Cotton White Fly); experiment: Bemisia tabaci (Cotton White Fly): Feeding/Contact Activity; settings: foliar, 144 h, application rate of 200 ppm, adult white flies on sprayed cotton leaf discs, 6 days after incubation
Procedure: Example B1: Bemisia tabaci (Cotton White Fly): Feeding/Contact Activity
Cotton leaf discs were placed on agar in 24-well microtiter plates and sprayed with aqueous test solutions prepared from 10'000 ppm DMSO stock solutions. After drying the leaf discs were infested with adult white flies. The samples were checked for mortality 6 days after incubation.

[12] = tested on: Tetranychus urticae (Two-Spotted Spider Mite); experiment: Tetranychus urticae (Two-Spotted Spider Mite): Feeding/Contact Activity; settings: foliar, 192 h
Procedure: Example B9: Tetranychus urticae (Two-Spotted Spider Mite): Feeding/Contact Activity
Bean leaf discs on agar in 24-well microtiter plates were sprayed with aqueous test solutions prepared from 10'000 ppm DMSO stock solutions. After drying the leaf discs were infested with a mite population of mixed ages. The samples were assessed for mortality on mixed population (mobile stages) 8 days after infestation.

CCS(=O)(=O)c1cc(N(C)C(C)=O)cnc1N1Cc2cnc(C(F)(F)F)cc2C1=O [Compound P3, N-[5-ethylsulfonyl-6-[1-oxo-6-(trifluoromethyl)-3H-pyrrolo[3,4-c]pyridin-2-yl]-3-pyridyl]-N-methyl-acetamide]
≥ 80%: percent effect (mortality or growth inhibition) at 200 ppm [1] | percent effect (mortality or growth inhibition) at 200 ppm [2] | mortality at 200 ppm [3] | percent effect (mortality or growth inhibition) at 200 ppm [4] | mortality at 200 ppm [5] | mortality at 24 ppm [6] | percent control (mortality, anti-feedant effect or growth inhibition) at 200 ppm [7] | mortality at 50 ppm [8] | mortality at 50 ppm [9] | mortality at 12.5 ppm [10]

CCS(=O)(=O)c1cc(C2(C#N)CC2)cnc1N1Cc2cnc(C(F)(F)F)cc2C1=O [Compound P8, 1-[5-ethylsulfonyl-6-[1-oxo-6-(trifluoromethyl)-3H-pyrrolo[3,4-c]pyridin-2-yl]-3-pyridyl]cyclopropanecarbonitrile]
≥ 80%: mortality at 200 ppm [11] | percent effect (mortality or growth inhibition) at 200 ppm [1] | percent effect (mortality or growth inhibition) at 200 ppm [2] | mortality at 200 ppm [3] | percent effect (mortality or growth inhibition) at 200 ppm [4] | mortality at 200 ppm [5] | mortality at 24 ppm [6] | percent control (mortality, anti-feedant effect or growth inhibition) at 200 ppm [7] | mortality at 50 ppm [8] | mortality at 50 ppm [9] | mortality at 12.5 ppm [10]

N#CC1(c2cnc(N3Cc4cnc(C(F)(F)F)cc4C3=O)c(S(=O)(=O)CC3CC3)c2)CC1 [Compound P28, 1-[5-(cyclopropylmethylsulfonyl)-6-[1-oxo-6-(trifluoromethyl)-3H-pyrrolo[3,4-c]pyridin-2-yl]-3-pyridyl]cyclopropanecarbonitrile]
≥ 80%: mortality at 200 ppm [11] | percent effect (mortality or growth inhibition) at 200 ppm [1] | percent effect (mortality or growth inhibition) at 200 ppm [2] | percent effect (mortality or growth inhibition) at 200 ppm [4] | mortality at 200 ppm [5] | percent control (mortality, anti-feedant effect or growth inhibition) at 200 ppm [7] | mortality at 200 ppm [12]
